Experimental findings from patent publication US7742877B1, “Methods, apparatus and computer program products for formulating culture media” (Becton, Dickinson & Company, priority 1999, dated 2010) are described below.

Test [1] deals with mammalian hybridoma cells producing and secreting antibodies. The test is described as follows: Antibody production by hybridoma cells cultured in medium containing a test peptide (nearest neighbor example, model data). It counts as cell-based. The note with it: for Biol. Act. (antibody production): training set peptide added to hybridoma culture medium, model data; for Observed Activity (antibody production): candidate peptides, (hypothetical) biological activities. The text has this:
One particular, and preferred, method of identifying compounds based on a distance function is nearest neighbor analysis. This method can be illustrated using the following simplified example with model data.
According to this illustrative example, the present invention can be used to identify a peptide as a culture medium component, e.g., for mammalian hybridoma cells producing and secreting antibodies. In particular, it is desirable to identify peptides, which when added to culture medium, will promote antibody production by hybridoma cells at a level greater than a test requirement. Four test peptides (Asp-Lys-Ala-His (SEQ. ID NO:23), Asp-Trp-Pro-Ala (SEQ. ID NO:24), Glu-Ser-Met-His (SEQ. ID NO:25), Gly-Val-Asn-Glu (SEQ. ID NO:26); i.e., a training set) may be selected from a peptide library as described above with respect to the QSAR example. Values to describe the various parameters of the peptides, for example, hydrophobicity (i.e., mlogp), molecular weight, and total charge may be calculated for each peptide (Table 5). Each peptide may be added to hybridoma culture medium and antibody production (i.e., biological activity) may be measured for the cells cultured in each culture medium (values shown in Table 5).
The peptides in the candidate set will then be assigned predicted indicia of the property based the closest peptide in the training set (Table 9).

The subject of test [2] is bacterial cells genetically engineered to produce a heterologous protein of interest. Put plainly: Protein production by bacterial cells grown in culture medium containing a test peptide (QSAR example, exemplary data). Format: cell-based. The note with it: peptide included in culture medium of bacterial cells; exemplary (hypothetical) data. From the text:
The present invention may be used to identify a peptide to include as a component of a culture medium. The culture medium may be used to culture bacterial cells genetically engineered to produce a heterologous protein of interest. Accordingly, it would be desirable to identify a peptide which when included in a culture medium will enhance protein production by bacterial cells grown in the culture medium (i.e., to satisfy a test requirement).
In this example, eight test peptides are selected from a tetrapeptide library: Asp-Lys-Ala-His (SEQ. ID. NO:23), Asp-Trp-Pro-Ala (SEQ. ID. NO:24), Glu-Ser-Met-His (SEQ. ID. NO:25), Gly-Val-Asn-Glu (SEQ. ID. NO:26), His-Glu-Asp-Val (SEQ. ID. NO:27), Glu-Thr-Gly-Ser (SEQ. ID. NO:28), His-Tyr-Gly-Val (SEQ. ID. NO:29, and Asp-Phe-Gly-Val (SEQ. ID. NO:30); Table 3). The test peptides may be selected from the library by any means known in the art. The values for three parameters (molecular weight, total charge, and mlogp, i.e., hydrophobicity) may be determined for each of the eight peptides. The indicia of the property, in this example a particular biological activity (i.e., protein production), may be determined for the eight peptides as well.

With Asp-Lys-Ala-His (DKAH), the “Biol. Act. (antibody production)” value in test [1] stood at 15.0. In test [2], the “Biol. Act. (protein production)” value worked out at 15.0.
As for Asp-Phe-Gly-Val (DFGV), the “Observed Activity (antibody production)” value in test [1] came out at 22.0. Also, the “Biol. Act. (protein production)” value in test [2] is given as 22.0.
Turning to Asp-Trp-Pro-Ala (DWPA), the “Biol. Act. (antibody production)” value in test [1] is reported as 25.0. Moreover, the “Biol. Act. (protein production)” value in test [2] is given as 25.0.
Take Glu-Ser-Met-His (ESMH): in test [1], the “Biol. Act. (antibody production)” value was 19.3. Besides, the “Biol. Act. (protein production)” value in test [2] is reported as 19.3.
For the substance Glu-Thr-Gly-Ser (ETGS), in test [1], the “Observed Activity (antibody production)” value was determined as 10.2. Besides, the “Biol. Act. (protein production)” value in test [2] is given as 10.2.
Consider Gly-Val-Asn-Glu (GVNE), for which the “Biol. Act. (antibody production)” value in test [1] was found to be 14.4. In addition, the “Biol. Act. (protein production)” value in test [2] was determined as 14.4.
Consider His-Glu-Asp-Val (HEDV), for which the “Observed Activity (antibody production)” value in test [1] worked out at 18.5. Also, in test [2], the “Biol. Act. (protein production)” value is on record as 18.5.
As for His-Tyr-Gly-Val (HYGV), the “Observed Activity (antibody production)” value in test [1] is reported as 23.6. For the same substance, in test [2], the “Biol. Act. (protein production)” value was determined as 23.6.
